Tested on: HT-29 cells
Test: Comet assay (single cell gel electrophoresis), genotoxic potential
Format: cell-based, Human
Conditions: concentration corresponding to quercetin 70 µM

SMILES: O=c1c(O)c(-c2ccc(O)c(O)c2)oc2cc(O)cc(O)c12 [quercetin]
- genotoxic effect / DNA integrity: genotoxic effect

Reference: patent EP3673920A1, “POLYPHENOL-PEPTIDE CONJUGATES FOR NUCLEAR-TARGETED DELIVERY” (Universität Wien, priority 2018, dated 2020)
